Source: patent publication US20080021015A1, “Use as medicine of a compound restoring active principles in vivo” (DOSPHARMA, priority 2000, published 2008)
Counter-ions that a name gives are not always drawn.

What was measured:
[1] = rat, in vivo, po, 50 mg/kg
[2] = tested on: rats treated with streptozotocin; assay: Antidiabetic activity in rats made diabetic with streptozotocin; format: in vivo, rat; conditions: streptozotocin (50 mg/kg, IP) rats; for hyperglycaemia after treatment: after administration of 30 mg/kg; for hyperglycaemia before treatment: starting value, 30 mg/kg group
Protocol: (§1) The antidiabetic activity was studied, from the pharmacological point of view, on two models of rats made diabetic.
The first model consisted in treating the rats with streptozotocin (50 mg/kg, IP), this being a compound which induces an increase in glycaemia, which increases from 5.5 mM to 12-14 mM in 21 days.

primary hepatocytes = assay: In vitro toxicity assay on primary hepatocytes
Protocol: A method for culturing primary hepatocytes over a period of 96 hours is used (see Biochemical Pharmacology, vol. 50, 1995, pp. 775-780). The hepatocytes are isolated in situ by collagen profusion. They are then placed in a Williams medium supplemented with foetal calf serum, with cortisol and with glutamine, in a proportion of 1 million cells per well. Increasing and toxic concentrations of A and C, and of A′ ? […] C′ are then added to each well. Samples are taken up after 6 h, 12 h, 24 h, 48 h and 96 h and the viability of the cells is determined with a methylene blue test, by albumin expression, by hepatocyte apoptosis and by measuring cytochrome P450 activity.

[3] = tested on: rats given fructose at 10% in the drinking water; conditions: fructose 10% in drinking water, equivalent dose of metformin base
Protocol: as §1
The second study is carried out with the administration of fructose at 10% in the drinking water of the rats.

| Molecule | concentration peak [1] [ng/mL] | time of concentration peak [1] [min] | hyperglycaemia after treatment [2] [mM] | hyperglycaemia before treatment [2] [mM] | toxic dose (primary hepatocytes) | antidiabetic activity compared with metformin alone [3] | effects on the microcirculation (hamster cheek pouch) |
| --- | --- | --- | --- | --- | --- | --- | --- |
| CN(C)C(=N)N=C(N)N [metformin hydrochloride] | 3900 | ≤ 90 | – | – | – | – | – |
| CN(C)C(=N)NC(=N)N [metformin, N,N-dimethylimidodicarbonimidic diamide] | – | – | 9.85 | 12.11 | 10^−2 M | – | – |
| arginine hemisuccinimide-metformin hemisuccinate | – | – | 7.56 | 12.66 | – | significantly more active than the metformin alone | reproduces at least the effects of the two active principles on the microcirculation |
